Data: ChEMBL document CHEMBL6182909 (J Med Chem, 2025)
Values after ≈ are worked out from the molar mass of the structure shown. Active and inactive are the calls of the source. No cut-off for these calls is given here.

Assays:
[1] = Oral bioavailability in Cynomolgus monkey at 5 mg/kg; type: ADME, organism-based, Macaca fascicularis; settings: in vivo
[2] = Clearance in rat at 2 mg/kg, iv; type: ADME, organism-based; settings: in vivo
[3] = AUC (0 to infinity) in rat at 2 mg/kg, iv; type: ADME, organism-based; settings: in vivo
[4] = Unbound fraction in plasma of fasted male Sprague-Dawley rat at 10 mg/kg, po; type: ADME, organism-based
[5] = AUC (0 to infinity) in mouse at 5 mg/kg, po; type: ADME, organism-based; settings: in vivo
[6] = Renal clearance in Cynomolgus monkey at 2 mg/kg, iv; type: ADME, organism-based, Macaca fascicularis; settings: in vivo
[7] = Clearance in Cynomolgus monkey at 2 mg/kg, iv; type: ADME, organism-based, Macaca fascicularis; settings: in vivo
[8] = Tmax in dog at 5 mg/kg, po; type: ADME, organism-based, Canis lupus familiaris; settings: in vivo
[9] = Unbound fraction in brain of fasted male Sprague-Dawley rat at 10 mg/kg, po; type: ADME, organism-based; settings: in vivo
[10] = Half life in dog at 5 mg/kg, po; type: ADME, organism-based, Canis lupus familiaris; settings: in vivo
[11] = Tmax in mouse at 5 mg/kg, po; type: ADME, organism-based; settings: in vivo
[12] = Half life in dog at 2 mg/kg, iv; type: ADME, organism-based, Canis lupus familiaris; settings: in vivo
[13] = Half life in rat at 2 mg/kg, iv; type: ADME, organism-based; settings: in vivo
[14] = Oral bioavailability in dog at 5 mg/kg; type: ADME, organism-based, Canis lupus familiaris; settings: in vivo
Rattus norvegicus [15] = test: Hypophagic effect in fasted male Sprague-Dawley rat assessed as effective dose administered orally measured after 1 hr relative to control; type: functional; settings: route po
[16] = AUC (0 to infinity) in rat at 5 mg/kg, po; type: ADME, organism-based; settings: in vivo
[17] = Stability in hepatocytes (unknown origin); type: ADME, cell-based, Hepatocyte
[18] = Renal clearance in rat at 2 mg/kg, iv; type: ADME, organism-based; settings: in vivo
[19] = Volume of distribution at steady state in dog at 2 mg/kg, iv; type: ADME, organism-based, Canis lupus familiaris; settings: in vivo, read-out: Vdss
[20] = Half life in Cynomolgus monkey at 5 mg/kg, po; type: ADME, organism-based, Macaca fascicularis; settings: in vivo
[21] = Half life in mouse at 2 mg/kg, iv; type: ADME, organism-based; settings: in vivo
[22] = AUC (0 to infinity) in Cynomolgus monkey at 2 mg/kg, iv; type: ADME, organism-based, Macaca fascicularis; settings: in vivo
[23] = Basicity constant, pKa of compound; type: physicochemical
[24] = Clearance in dog at 2 mg/kg, iv; type: ADME, organism-based, Canis lupus familiaris; settings: in vivo
Rattus norvegicus [25] = test: Hypophagic effect in fasted male Sprague-Dawley rat assessed as inhibition of food intake at 10 mg/kg, po measured after 1 hr relative to control; type: functional; settings: Rattus norvegicus, Sprague-Dawley, po
[26] = Cmax in Cynomolgus monkey at 5 mg/kg, po; type: ADME, organism-based, Macaca fascicularis; settings: in vivo
[27] = Clearance in mouse at 2 mg/kg, iv; type: ADME, organism-based; settings: in vivo
[28] = Volume of distribution at steady state in rat at 2 mg/kg, iv; type: ADME, organism-based; settings: in vivo, read-out: Vdss
[29] = AUC (0 to infinity) in dog at 5 mg/kg, po; type: ADME, organism-based, Canis lupus familiaris; settings: in vivo
[30] = Cmax in mouse at 5 mg/kg, po; type: ADME, organism-based; settings: in vivo
[31] = Half life in Cynomolgus monkey at 2 mg/kg, iv; type: ADME, organism-based, Macaca fascicularis; settings: in vivo
[32] = AUC (0 to infinity) in mouse at 2 mg/kg, iv; type: ADME, organism-based; settings: in vivo
[33] = Tmax in rat at 5 mg/kg, po; type: ADME, organism-based; settings: in vivo
[34] = Water solubility of compound; type: physicochemical; settings: buffer
[35] = Half life in mouse at 5 mg/kg, po; type: ADME, organism-based; settings: in vivo
[36] = Stability in microsomes (unknown origin); type: ADME, Microsome
[37] = AUC (0 to infinity) in Cynomolgus monkey at 5 mg/kg, po; type: ADME, organism-based, Macaca fascicularis; settings: in vivo
[38] = Volume of distribution at steady state in Cynomolgus monkey at 2 mg/kg, iv; type: ADME, organism-based, Macaca fascicularis; settings: in vivo, read-out: Vdss
[39] = Volume of distribution at steady state in mouse at 2 mg/kg, iv; type: ADME, organism-based; settings: in vivo, read-out: Vdss
[40] = Cmax in dog at 5 mg/kg, po; type: ADME, organism-based, Canis lupus familiaris; settings: in vivo
[41] = Half life in rat at 5 mg/kg, po; type: ADME, organism-based; settings: in vivo
[42] = Oral bioavailability in mouse at 5 mg/kg; type: ADME, organism-based; settings: in vivo
[43] = AUC (0 to infinity) in dog at 2 mg/kg, iv; type: ADME, organism-based, Canis lupus familiaris; settings: in vivo
[44] = Renal clearance in dog at 2 mg/kg, iv; type: ADME, organism-based, Canis lupus familiaris; settings: in vivo
[45] = Tmax in Cynomolgus monkey at 5 mg/kg, po; type: ADME, organism-based, Macaca fascicularis; settings: in vivo
[46] = Cmax in rat at 5 mg/kg, po; type: ADME, organism-based; settings: in vivo
Rattus norvegicus [47] = test: Hypophagic effect in fasted male Sprague-Dawley rat at 10 mg/kg, po measured after 1 hr in presence of SB242084; type: functional, organism-based
[48] = Oral bioavailability in rat at 5 mg/kg; type: ADME, organism-based; settings: in vivo
[49] = Drug concentration in plasma of fasted male Sprague-Dawley rat assessed as inhibition of food intake at 10 mg/kg, po measured after 1 hr relative to control; type: organism-based
[50] = Drug concentration in brain of fasted male Sprague-Dawley rat assessed as inhibition of food intake at 10 mg/kg, po measured after 1 hr relative to control; type: organism-based; settings: read-out: Ct
Rattus norvegicus [51] = test: Hypophagic effect in fasted male Sprague-Dawley rat assessed as inhibition of food intake at 5 mg/kg, po measured after 1 hr relative to control; type: functional

CNC(=O)c1ccc2c3c1CCN3CCNC2
bioavailability [1]: 71.2%
clearance [2]: 44.3 mL/min/kg
AUC(0-inf) [3]: 770 ng·h/mL
fraction unbound [4]: 0.87
AUC(0-inf) [5]: 720 ng·h/mL
CL ([6]; iv, 2 mg/kg): 4.5 mL/min/kg
clearance [7]: 16.7 mL/min/kg
Tmax [8]: 0.92 h
Fu [9]: 75%
half-life [10]: 1.9 h
Tmax [11]: 0.25 h
half-life [12]: 1.38 h
half-life [13]: 0.56 h
bioavailability [14]: 90.2%
ED50 (Rattus norvegicus [15]): 6.4 mg/kg
AUC(0-inf) [16]: 2020 ng·h/mL
Stability [17]: Stable
CL renal [18]: 24 mL/min/kg
Vd [19]: 1.41 L/kg
half-life [20]: 2.07 h
half-life [21]: 0.41 h
AUC(0-inf) [22]: 2000 ng·h/mL
pKa [23]: 7.93
clearance [24]: 18.3 mL/min/kg
inhibition in vivo at 10 mg/kg (Rattus norvegicus [25]): 87%
Cmax [26]: 700 ng/mL
clearance [27]: 99 mL/min/kg
Vd [28]: 1.89 L/kg
AUC(0-inf) [29]: 4130 ng·h/mL
Cmax [30]: 940 ng/mL
half-life [31]: 1.49 h
AUC(0-inf) [32]: 340 ng·h/mL
Tmax [33]: 0.58 h
solubility [34]: 91 mg/mL (≈ 393 mM)
half-life [35]: 0.6 h
Stability [36]: Stable
AUC(0-inf) [37]: 3580 ng·h/mL
Vd [38]: 1.8 L/kg
Vd [39]: 2.44 L/kg
Cmax [40]: 1820 ng/mL
half-life [41]: 1.51 h
bioavailability [42]: 85.6%
AUC(0-inf) [43]: 1830 ng·h/mL
CL renal [44]: 1.17 mL/min/kg
Tmax [45]: 2.33 h
Cmax [46]: 570 ng/mL
Activity (Rattus norvegicus [47]): inactive

C[C@H]1CN2CCNCc3ccc(C(=O)NCC(F)F)c1c32 [BEXICASERIN]
bioavailability [1]: 58%
clearance [2]: 58.5 mL/min/kg
AUC(0-inf) [3]: 577 ng·h/mL
AUC(0-inf) [5]: 910 ng·h/mL
CL renal [6]: 0.0333 mL/min/kg
clearance [7]: 11.5 mL/min/kg
Tmax [8]: 0.58 h
half-life [10]: 4 h
Tmax [11]: 0.25 h
half-life [12]: 1.3 h
half-life [13]: 1.6 h
bioavailability [14]: 97%
ED50 (Rattus norvegicus [15]): 2.8 mg/kg
AUC(0-inf) [16]: 1280 ng·h/mL
CL renal [18]: 9.65 mL/min/kg
Vd [19]: 1.85 L/kg
half-life [20]: 5.52 h
half-life [21]: 0.66 h
AUC(0-inf) [22]: 2970 ng·h/mL
clearance [24]: 20.7 mL/min/kg
Cmax [26]: 430 ng/mL
bioavailability [48]: 89%
clearance [27]: 68.8 mL/min/kg
Vd [28]: 3.69 L/kg
AUC(0-inf) [29]: 3920 ng·h/mL
Cmax [30]: 820 ng/mL
half-life [31]: 6.8 h
AUC(0-inf) [32]: 318 ng·h/mL
concentration at 1 h [49]: 960 ng/mL
Tmax [33]: 0.5 h
half-life [35]: 1.5 h
AUC(0-inf) [37]: 4300 ng·h/mL
concentration at 1 h [50]: 832 ng/g
Vd [38]: 4.36 L/kg
Vd [39]: 2.98 L/kg
Cmax [40]: 1590 ng/mL
half-life [41]: 2.5 h
bioavailability [42]: 100%
inhibition in vivo at 5 mg/kg (Rattus norvegicus [51]): 81%
AUC(0-inf) [43]: 1620 ng·h/mL
CL renal [44]: 0.00333 mL/min/kg
Tmax [45]: 3 h
Cmax [46]: 450 ng/mL
